13 compounds from ChEMBL document CHEMBL4725325, “Synthesis and biological evaluation of parthenolide derivatives with reduced toxicity as potential inhibitors of the NLRP3 inflammasome” (Bioorg Med Chem Lett, 2020) can be followed below.

The target in data set [1] is NACHT, LRR and PYD domains-containing protein 3 (Mus musculus) (UniProt Q8R4B8). The data set can be described thus: Inhibition of NLRP3 inflammasome in mouse J774.A1 cells assessed as reduction in LPS-induced IL-1beta release at 1 to 10 uM. Type of data set: cell-based. Conditions: dose microM 1-10.
Data set [2] can be described thus: Cytotoxicity against human HEK-293T cells. Conditions: read-out: TC50 (the source's name). It is filed as cell-based.
Data set [3] has as its target NACHT, LRR and PYD domains-containing protein 3 (Mus musculus, UniProt Q8R4B8). As to the kind of experiment: Inhibition of NLRP3 inflammasome in mouse J774.A1 cells assessed as reduction in LPS-induced IL-1beta release. Type of data set: cell-based.
For data set [4], the target named is T1, NACHT, LRR and PYD domains-containing protein 3 (Homo sapiens, UniProt Q96P20). As to the kind of experiment: Inhibition of NLRP3 inflammasome in human primary glial cells assessed as reduction in LPS-induced IL-1beta release. Type of data set: cell-based.
Data set [5] concerns the target T1, NACHT, LRR and PYD domains-containing protein 3. The data set can be described thus: Inhibition of NLRP3 inflammasome in human primary glial cells assessed as reduction in LPS-induced IL-1beta release at 1 to 10 uM. It is filed as cell-based. Conditions: dose microM 1-10.
Data set [6] is described as follows: Cytotoxicity against mouse J774.A1 cells. The settings on record: read-out: TC50 (the source's name). Type of data set: cell-based.
Data set [7] is described as follows: Therapeutic index, ratio of IC50 for cytotoxicity against mouse J774.A1 cells to IC50 for antiinflammatory activity in mouse J774.A1 cells. It is filed as toxicity, cell-based.
Data set [8] concerns the target NACHT, LRR and PYD domains-containing protein 3 (Mus musculus) (UniProt Q8R4B8). As to the kind of experiment: Inhibition of NLRP3 inflammasome in mouse J774.A1 cells assessed as reduction in LPS-induced IL-1beta release at 10 uM. Type of data set: cell-based.
In data set [9] the target is T1, NACHT, LRR and PYD domains-containing protein 3. The data set can be described thus: Inhibition of NLRP3 inflammasome in human primary glial cells assessed as reduction in LPS-induced IL-1beta release at 10 uM in presence of PTL/MCL. Type of data set: cell-based. Conditions: Primary neuron.
For data set [10] the target is unchanged. As to the kind of experiment: Inhibition of NLRP3 inflammasome in human primary glial cells assessed as reduction in LPS-induced IL-1beta release at 10 uM. Type of data set: cell-based. Conditions: Primary neuron.
The target in data set [11] is NACHT, LRR and PYD domains-containing protein 3 (Mus musculus) (UniProt Q8R4B8). As to the kind of experiment: Inhibition of NLRP3 inflammasome in mouse J774.A1 cells assessed as reduction in LPS-induced IL-1beta release at 10 uM in presence of PTL/MCL. It is filed as cell-based.
The subject of data set [12] is Mus musculus. The data set can be described thus: In vivo inhibition of NLRP3 in mouse assessed as reduction in LPS-induced IL-1beta release in serum at 30 mg/kg, po. Type of data set: functional, organism-based.
The target of data set [13] is T1, NACHT, LRR and PYD domains-containing protein 3. The data set can be described thus: Inhibition of NLRP3 inflammasome activation (unknown origin) assessed as reduction in proIL-1beta at 0.2 to 5 uM by Western blot analysis. Conditions: dose microM 0.2-5.
Data set [14] has the same target. As to the kind of experiment: Inhibition of NLRP3 inflammasome activation (unknown origin) assessed as reduction in IL-1beta by Western blot analysis. Conditions: dose microM 0.2-5. For orientation: A western blot detects proteins with antibodies after separation by electrophoresis.
Data set [15] shares this target. As to the kind of experiment: Inhibition of NLRP3 inflammasome activation (unknown origin) assessed as reduction in caspase 1 p20 level by Western blot analysis. Type of data set: tissue-based. Conditions: Primary neuron, dose microM 0.2-5.
For data set [16] the target is unchanged. The data set can be described thus: Inhibition of NLRP3 inflammasome activation (unknown origin) assessed as reduction in procaspase1 at 0.2 to 5 uM by Western blot analysis. The settings on record: dose microM 0.2-5.
In data set [17] the test system is Mus musculus. The data set can be described thus: In vivo inhibition of NLRP3 in mouse assessed as reduction in LPS-induced IL-1beta release in peritoneal fluid at 30 mg/kg, po. It is filed as functional, organism-based.
In data set [18] the target is T1, NACHT, LRR and PYD domains-containing protein 3. The data set can be described thus: Inhibition of NLRP3 inflammasome activation (unknown origin) assessed as reduction in ASC level at 0.2 to 5 uM by Western blot analysis. Conditions: dose microM 0.2-5.

pIC50: −log10 of the molar value. The source made the active and inactive calls. No cut-off for these calls is given here.

T1 sequence (Q96P20 whole entry, the tested form may be a part): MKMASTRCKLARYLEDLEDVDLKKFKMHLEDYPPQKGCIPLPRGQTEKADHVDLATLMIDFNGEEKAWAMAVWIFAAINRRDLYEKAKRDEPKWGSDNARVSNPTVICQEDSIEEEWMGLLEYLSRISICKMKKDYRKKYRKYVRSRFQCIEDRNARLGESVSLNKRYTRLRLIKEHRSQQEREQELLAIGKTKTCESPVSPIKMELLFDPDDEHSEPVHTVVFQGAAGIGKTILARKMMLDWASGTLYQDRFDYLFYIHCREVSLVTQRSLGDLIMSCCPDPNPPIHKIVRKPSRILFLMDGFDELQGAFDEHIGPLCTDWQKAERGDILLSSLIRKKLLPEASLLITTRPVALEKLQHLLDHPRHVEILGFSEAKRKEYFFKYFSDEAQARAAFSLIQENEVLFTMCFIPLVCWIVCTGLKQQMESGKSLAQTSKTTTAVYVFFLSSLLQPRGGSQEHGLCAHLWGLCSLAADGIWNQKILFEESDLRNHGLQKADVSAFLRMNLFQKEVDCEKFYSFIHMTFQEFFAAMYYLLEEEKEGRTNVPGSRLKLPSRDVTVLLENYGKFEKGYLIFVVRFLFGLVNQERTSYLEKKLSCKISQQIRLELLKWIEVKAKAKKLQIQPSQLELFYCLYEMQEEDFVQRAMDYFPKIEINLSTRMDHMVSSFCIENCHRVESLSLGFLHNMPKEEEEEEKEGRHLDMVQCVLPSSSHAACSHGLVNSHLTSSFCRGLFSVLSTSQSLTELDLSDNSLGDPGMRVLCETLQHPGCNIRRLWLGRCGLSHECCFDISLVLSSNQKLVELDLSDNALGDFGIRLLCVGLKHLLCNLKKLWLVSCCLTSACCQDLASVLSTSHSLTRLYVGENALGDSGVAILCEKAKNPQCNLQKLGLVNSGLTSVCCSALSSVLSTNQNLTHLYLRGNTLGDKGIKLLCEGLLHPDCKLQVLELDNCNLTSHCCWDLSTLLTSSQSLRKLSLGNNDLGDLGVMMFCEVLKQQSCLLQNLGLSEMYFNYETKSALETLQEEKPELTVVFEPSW
Sequence of NACHT, LRR and PYD domains-containing protein 3 (Mus musculus) (Q8R4B8 whole entry, the tested form may be a part): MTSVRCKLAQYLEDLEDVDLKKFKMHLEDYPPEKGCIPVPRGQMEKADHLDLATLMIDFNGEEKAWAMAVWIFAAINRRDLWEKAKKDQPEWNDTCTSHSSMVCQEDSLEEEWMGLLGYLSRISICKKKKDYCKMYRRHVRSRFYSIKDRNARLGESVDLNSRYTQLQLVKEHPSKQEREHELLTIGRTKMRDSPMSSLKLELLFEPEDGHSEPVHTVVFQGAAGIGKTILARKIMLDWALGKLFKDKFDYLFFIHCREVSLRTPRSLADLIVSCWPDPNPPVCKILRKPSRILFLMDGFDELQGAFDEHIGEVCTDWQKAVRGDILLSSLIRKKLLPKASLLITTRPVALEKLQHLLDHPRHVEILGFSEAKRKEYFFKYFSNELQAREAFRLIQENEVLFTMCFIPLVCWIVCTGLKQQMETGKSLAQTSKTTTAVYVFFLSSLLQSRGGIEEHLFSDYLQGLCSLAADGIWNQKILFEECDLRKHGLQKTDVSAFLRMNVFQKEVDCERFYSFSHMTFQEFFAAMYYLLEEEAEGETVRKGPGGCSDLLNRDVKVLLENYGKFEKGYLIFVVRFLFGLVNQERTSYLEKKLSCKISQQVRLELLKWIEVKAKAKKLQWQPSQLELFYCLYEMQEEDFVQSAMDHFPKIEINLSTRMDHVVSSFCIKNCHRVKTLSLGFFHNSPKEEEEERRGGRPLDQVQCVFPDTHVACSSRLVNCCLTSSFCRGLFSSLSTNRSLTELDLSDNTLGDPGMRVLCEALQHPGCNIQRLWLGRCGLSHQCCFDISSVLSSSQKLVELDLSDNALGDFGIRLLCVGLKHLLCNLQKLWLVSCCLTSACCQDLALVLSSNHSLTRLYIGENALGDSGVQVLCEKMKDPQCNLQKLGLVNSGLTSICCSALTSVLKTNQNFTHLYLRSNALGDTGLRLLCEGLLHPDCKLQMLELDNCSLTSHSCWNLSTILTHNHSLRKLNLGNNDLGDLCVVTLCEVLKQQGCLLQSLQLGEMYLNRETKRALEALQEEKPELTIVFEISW
Sequence of NACHT, LRR and PYD domains-containing protein 3 (Mus musculus, UniProt Q8R4B8) (Q8R4B8 whole entry, the tested form may be a part): as above

Consider `C=C1C(=O)O[C@@H]2/C=C(\C)CC/C=C(\C)CC[C@@H]12`, for which, in data set [1], the inhibition entry was “Dose-dependent effect”.
As a reminder, the pIC50 is the IC50 on a negative log10 scale, so that one unit is a factor of ten. For the compound `C=C1C(=O)O[C@H]2[C@H]1CCC(C)=C1CC[C@@](C)(O)[C@@H]12` [MICHELIOLIDE], the CC50 stood at 51.7 µM in data set [2] and 21.9 µM in data set [6]. Besides, the inhibition entry in [1] and in data set [5] was “Dose-dependent effect” in each case. Moreover, the results for the pIC50 in data set [3] and in data set [4] were 5.64 and 5.23, respectively. In data set [7], the selectivity ratio worked out at 9.5.
Consider `Nc1nc2ccc(OC(F)(F)F)cc2s1`, for which the inhibition entry in data set [8] and in [10] was “inactive” throughout. The inhibition entry in [9] and in data set [11] was “Active” in each case.
Regarding `C=C1CCC[C@]2(C)CC[C@H]3C(=C)C(=O)O[C@@H]3[C@@H]12`, the inhibition entry in data set [1] and in data set [5] was “Dose-dependent effect” throughout.
For `C/C1=C\CC[C@]2(C)O[C@@H]2[C@H]2OC(=O)[C@@H](CN(C)CCCOc3no[n+]([O-])c3S(=O)(=O)c3ccccc3)[C@@H]2CC1`, the results for the CC50 in [2] and in [6] were 166 µM and 66.6 µM, respectively. Moreover, the results for the negative-log IC50 (pIC50) in data set [3] and in [4] were 6.40 and 5.66, respectively. Moreover, in data set [7], the selectivity ratio worked out at 166.
The corresponding values for `O=S(=O)(c1ccccc1)c1no[n+]([O-])c1S(=O)(=O)c1ccccc1` are 22.4 µM, 11.4 µM, 6.03, 5.72 and 12.2.
Take `C=C1C(=O)O[C@@H]2[C@H]3C(C)=CCC[C@]3(C)CC[C@@H]12`: the inhibition entry in data set [1] and in [5] was “Dose-dependent effect” in each case.
On to `C/C1=C\CC[C@]2(C)O[C@@H]2[C@H]2OC(=O)[C@@H](CN(C)CCOc3no[n+]([O-])c3S(=O)(=O)c3ccccc3)[C@@H]2CC1`, for which the CC50 amounted to 69.8 µM in [2] and 24.1 µM in data set [6]. Moreover, the inhibition entry in the data set on Mus musculus [12] and in the data set on Mus musculus [17] was “Active” in each case. The figures for the pIC50 in data set [3] and in data set [4] were 6.52 and 6.00, respectively. In addition, the inhibition entry in data set [13], in data set [16] and in [18] was “inactive” each time. In addition, the inhibition entry in data set [14] and in data set [15] was “Dose-dependent effect” each time. In addition, in [7], the selectivity ratio stood at 80.3.
`CC1=C2CC[C@@](C)(O)[C@@H]2[C@H]2OC(=O)[C@@H](CN(C)CC(=O)Nc3nc4ccc(OC(F)(F)F)cc4s3)[C@@H]2CC1`: the inhibition entry in data set [9] and in [11] was “Active” in each case.
As for `CC1=C2CC[C@@](C)(O)[C@@H]2[C@H]2OC(=O)[C@@H](CN(C)CCCOc3no[n+]([O-])c3S(=O)(=O)c3ccccc3)[C@@H]2CC1`, the CC50 in data set [2] came to 106 µM; in [6] it was 68.5 µM. For the same compound, the figures for the pIC50 in [3] and in data set [4] were 6.31 and 5.64, respectively. Also, the selectivity ratio in data set [7] came out at 140.
Turning to `C/C1=C\CC[C@]2(C)O[C@@H]2[C@H]2OC(=O)[C@@H](CN(C)CC(=O)Nc3nc4ccc(OC(F)(F)F)cc4s3)[C@@H]2CC1`, the inhibition entry in data set [9] and in data set [11] was “Active” each time.
Take `C=C1C(=O)O[C@@H]2[C@H]3O[C@@]3(C)CC/C=C(\C)CC[C@@H]12`: the CC50 in [2] turned out to be 29.9 µM; in data set [6], 14.3 µM. The inhibition result in data set [1] and in data set [5] was “Dose-dependent effect” each time. Besides, the inhibition entry in the data set on Mus musculus [12] and with Mus musculus [17] was “Active” each time. Also, the pIC50 in [3] was 5.85; in [4], 5.74. Also, in data set [7], the selectivity ratio stood at 10.2.
`CC1=C2CC[C@@](C)(O)[C@@H]2[C@H]2OC(=O)[C@@H](CN(C)CCOc3no[n+]([O-])c3S(=O)(=O)c3ccccc3)[C@@H]2CC1`: the CC50 in data set [2] worked out at 56.5 µM; in [6], 59.5 µM. The pIC50 in data set [3] is 6.30; in data set [4], 5.77. For the same compound, in data set [7], the selectivity ratio turned out to be 119.
